Molecular target: Vitamin K-dependent protein C (Homo sapiens) (UniProt P04070)
Assay: Inhibition of human APC using pyroGlu-Pro-Arg-p-nitroaniline-HCl as substrate measured after 5 mins by plate reader analysis

Chain of Vitamin K-dependent protein C (Homo sapiens) (P04070 whole entry, looked up): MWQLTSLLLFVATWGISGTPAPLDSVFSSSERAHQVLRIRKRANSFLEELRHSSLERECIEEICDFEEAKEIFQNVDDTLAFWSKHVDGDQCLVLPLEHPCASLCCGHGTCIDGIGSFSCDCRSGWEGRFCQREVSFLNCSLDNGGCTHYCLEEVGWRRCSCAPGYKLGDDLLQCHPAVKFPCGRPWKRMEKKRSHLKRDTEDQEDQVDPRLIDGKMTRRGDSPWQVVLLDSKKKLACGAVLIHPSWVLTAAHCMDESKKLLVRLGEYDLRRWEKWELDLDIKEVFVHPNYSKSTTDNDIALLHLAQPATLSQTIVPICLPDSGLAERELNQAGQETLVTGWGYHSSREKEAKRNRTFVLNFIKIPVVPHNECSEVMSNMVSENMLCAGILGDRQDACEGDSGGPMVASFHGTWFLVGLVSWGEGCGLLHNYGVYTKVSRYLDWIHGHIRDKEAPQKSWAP

IC50: > 30 µM
Compound: N#Cc1cccc(C(NCC2CC2)c2ccc(F)c(NC(=O)c3cc(C(F)(F)F)nn3-c3cccc(CN)c3)c2)c1 (single isomer, unassigned; (+)) [(+)-1-(3-(aminomethyl)phenyl)-N-(5-((3-cyanophenyl)(cyclopropyl-methylamino)methyl)-2-fluorophenyl)-3-(trifluoromethyl)-1H-pyrazole-5-carboxamide]

From BindingDB's records for doi:10.1021/acs.jmedchem.1c00511 (2021)
